In EP0619297B1, “Fungicides for the control of take-all desease of plants” (MONSANTO COMPANY, priority 1993, dated 1994):
Values after ≈ are worked out from the molar mass of the structure shown. Where two headings read alike, the source gives them in different places.

How the values were obtained:
[1] = system: Gaeumannomyces graminis var. tritici (Ggt); test: In vitro assay: mycelial growth on minimal media agar plates (Percent Inhibition; IC50); assay type: cell-based; settings: for inhibition at 0.1 ppm: read-out: In vitro(ppm) 0.1, Percent Inhibition; for inhibition at 1 ppm: read-out: In vitro(ppm) 1, Percent Inhibition; for inhibition at 10 ppm: read-out: In vitro(ppm) 10, Percent Inhibition
Protocol: The test compounds (0.25 mL of an appropriate stock solution in acetone) are incorporated into 25 mL minimal media agar [prepared by autoclaving a solution of 17.5 g Czapek Dox broth (Difco), 7.5 g purified agar or Bacto-agar (Difco), and 500 mL distilled/deionized water, and then adding 50 µL of 1 mg/mL thiamine hydrochloride and 50 µL of 1 mg/mL biotin in 5% ethanol] and plates are prepared.
Each plate is inoculated by placing in a triangular shape three 4-mm plugs of Gaeumannomyces graminis var. tritici (Ggt) grown on the minimal media agar described above. The plates are incubated in the dark at 19 - 20 °C for 4 to 5 days. The growth of the fungus is measured as the diameter of the mycelial growth. The result is expressed as Percent Inhibition, calculated as [1 - [(mm growth on treated plate - 4)/(mm growth on control plate - 4)]] x 100.
To determine IC5O values, an in vitro assay was run on each compound at the concentrations of 1, 0.1, 0.01, 0.001, and 0.0001 ppm. The percent inhibition was calculated for each concentration using the equation described in the in vitro assay under the section on Biological Assays. Using the two ordered pairs of (concentration, % inhibition) that bracket 50% inhibition of fungal growth, the concentration for 50% inhibition is calculated from the following equation. IC50 = [(50-I2 )C1 + (I1 -50)C2 ]/(I1 -I2 ), [formula] where C1 = 10C2.

Ggt = test: In vivo assay: control of Ggt on wheat in 3-inch pots with infested soil, rated after four weeks;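 on In vivo(ppm) 0.1, percent disease control: rate is mg active ingredient per pot in 3 mL solution not ppm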;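 on In vivo(ppm) 0.5, percent disease control: rate is mg active ingredient per pot in 3 mL solution not ppm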; parameters: species or system Gaeumannomyces graminis var. tritici; settings: Gaeumannomyces graminis, 672 h; for pest or weed control at 0.1 mg/pot: read-out: In vivo(ppm) 0.1, percent disease control; for pest or weed control at 0.5 mg/pot: read-out: In vivo(ppm) 0.5, percent disease control; for pest or weed control at 0.02 mg/pot: read-out: In vivo(ppm) 0.02mg/pot, percent disease control
Protocol: Compounds are tested for control of Ggt on 'Bergen' or 'Anza' varieties of wheat grown in 3-inch square pots containing soil infested with Ggt. The infestation is accomplished by mixing the soil with an inoculum prepared by growing Ggt on 1/4 strength potato dextrose agar (4.875 g potato dextrose agar, 5.0 g Bacto agar, 500 mL distilled, deionized water) in plates and using plugs from the plates to infest sterile oats (400 cc whole oats, 350 mL deionized water, autoclaved). After a one-month incubation period at room temperature, the oats are dried and mixed with the soil at 4% v/v. Four wheat seeds are placed on top of the soil in each pot. […] Five pots are used for each treatment level and the controls, which are untreated, inoculated and non-inoculated pots. After one hour drying time, the seeds are covered with more of the appropriate soil and a layer of vermiculite. The pots are placed in a growth chamber and watered each day. After four weeks, each pot is evaluated for evidence of disease by examination of the seminal roots of each plant under a dissecting microscope. A 0 to 5 rating scale having the following meanings is used: • 0 = no runner hyphae or lesions present • 1 = runner hyphae and a few small lesions present on <10% of root system • 2 = runner hyphae and small lesions present on 10 - 25% of root system • 3 = runner hyphae and lesions present on 25 - 50% of root system • 4 = runner hyphae and many, large, coalescing lesions on >50% of root system • 5 = root system and culm completely inundated with lesions and runner hyphae
From each set of five replicates a high or low score may be eliminated to assure the best representative scores are used to calculate a replicate mean by averaging the remaining scores. This mean score is then compared to the untreated control score and a percent disease control is calculated.

[2] = 0.1 ppm in agar, 19 - 20 °C, 4 to 5 days
[3] = 1 ppm in agar, 19 - 20 °C, 4 to 5 days
[4] = 10 ppm in agar, 19 - 20 °C, 4 to 5 days
[5] = rate 0.1 (head prints ppm, head line ends mg/pot), wheat, soil infested with Ggt, after four weeks, N = no control

Work on `CCNC(=O)c1c([Si](C)(C)C)cc(F)c2ccccc12` [Example 1, N-Ethyl-4-fluoro-2-(trimethylsilyl)-1-naphthalenecarboxamide] yielded an inhibition at 0.1 ppm [1] of 0%, an inhibition at 1 ppm [1] of 79% and an inhibition at 10 ppm [1] of 79%. It also gave a pest or weed control at 0.1 mg/pot (Ggt; soil) of 18%.
`CCN(CC)C(=O)c1c([Si](C)(C)CI)ccc2ccccc12` [Example 2, N,N-Diethyl-2-[(iodomethyl)dimethylsilyl]-1-naphthalenecarboxamide] was tested, and the inhibition at 0.1 ppm [1] was 15%, the inhibition at 1 ppm [1] was 46% and the inhibition at 10 ppm [1] was 100%. It also gave a pest or weed control at 0.1 mg/pot (Ggt; soil) of less than 0% and a pest or weed control at 0.5 mg/pot (Ggt; soil) of less than 0%.
In the case of `CCN(CC)C(=O)c1c([Si](C)(C)C)ccc2ccccc12` [Example 3, N,N-Diethyl-2-(trimethylsilyl)-1-naphthalenecarboxamide], the inhibition at 0.1 ppm [1] is reported as 0%, the inhibition at 1 ppm [1] is reported as 0% and the inhibition at 10 ppm [1] is reported as 100%. The pest or weed control at 0.5 mg/pot (Ggt; soil) was 68%.
`CCNC(=O)c1c([Si](C)(C)C)ccc2ccccc12` [Example 4, N-Ethyl-2-(trimethylsilyl)-1-naphthalenecarboxamide] was tested, and the inhibition at 0.1 ppm [1] was 100%, the inhibition at 1 ppm [1] was 100% and the inhibition at 10 ppm [1] was 100%. The pest or weed control at 0.1 mg/pot (Ggt; soil) was 85% and the pest or weed control at 0.5 mg/pot (Ggt; soil) was 99%.
For `CCNC(=O)c1cc2ccccc2cc1[Si](C)(C)C` [Example 5, N-Ethyl-3-(trimethylsilyl)-2-naphthalenecarboxamide], the inhibition at 0.1 ppm [1] was 0%, the inhibition at 1 ppm [1] was 94% and the inhibition at 10 ppm [1] was 100%. The pest or weed control at 0.1 mg/pot (Ggt; soil) was 18% and the pest or weed control at 0.5 mg/pot (Ggt; soil) was 27%.
Work on `CCNC(=O)c1c(OC(C)(C)C)ccc2ccccc12` [Example 6, 2-(1,1-Dimethylethoxy)-N-ethyl-1-naphthalenecarboxamide] yielded an inhibition at 0.1 ppm [1, 2] of 21%, an inhibition at 1 ppm [1, 3] of 86% and an inhibition at 10 ppm [1, 4] of 93%. For the same molecule, the pest or weed control at 0.1 mg/pot (Ggt; [5]) was 53%.
With `CCNC(=O)n1c([Si](C)(C)C)cc2ccccc21` [Example 7, N-Ethyl-2-(trimethylsilyl)-1H-indole-1-carboxamide] the inhibition at 0.1 ppm [1] was 88%, the inhibition at 1 ppm [1] was 100% and the inhibition at 10 ppm [1] was 100%. For the same molecule, the pest or weed control at 0.1 mg/pot (Ggt; soil) was 40% and the pest or weed control at 0.5 mg/pot (Ggt; soil) was 79%.
`CCNC(=O)c1c([Si](C)(C)C)sc2ccccc12` [Example 8, N-Ethyl-2-(trimethylsilyl)-benzo[b]thiophene-3-carboxamide] gave an inhibition at 0.1 ppm [1] of 97%, an inhibition at 1 ppm [1] of 93% and an inhibition at 10 ppm [1] of 100%. For the same molecule, the pest or weed control at 0.1 mg/pot (Ggt; soil) was 43% and the pest or weed control at 0.5 mg/pot (Ggt; soil) was 71%.
`CCNC(=O)c1sc2ccccc2c1[Si](C)(C)C` [Example 9, N-Ethyl-3-(trimethylsilyl)benzo[b]thiophene-2-carboxamide] showed an inhibition at 0.1 ppm [1] of 0%, an inhibition at 1 ppm [1] of 0% and an inhibition at 10 ppm [1] of 88%. For the same molecule, the pest or weed control at 0.1 mg/pot (Ggt; soil) was less than 0%.
`CCNC(=O)c1c([Si](C)(C)C)n(C)c2ccccc12` [Example 10, N-Ethyl-1-Methyl-2-(trimethylsilyl)-1H-indole-3-carboxamide] gave an inhibition at 0.1 ppm [1] of 13%, an inhibition at 1 ppm [1] of 80% and an inhibition at 10 ppm [1] of 85%.
For `CCNC(=O)c1oc2ccccc2c1[Si](C)(C)C` [Example 11, N-Ethyl-3-(trimethylsilyl)-2-benzofurancarboxamide], the inhibition at 0.1 ppm [1] was 27%, the inhibition at 1 ppm [1] was 42% and the inhibition at 10 ppm [1] was 82%.
Work on `CCNC(=O)c1c([Si](C)(C)C)oc2ccccc12` [Example 12, N-Ethyl-2-(trimethylsilyl)-3-benzofurancarboxamide] yielded an inhibition at 0.1 ppm [1] of 97%, an inhibition at 1 ppm [1] of 97% and an inhibition at 10 ppm [1] of 100%. It also gave a pest or weed control at 0.1 mg/pot (Ggt; soil) of 85% and a pest or weed control at 0.5 mg/pot (Ggt; soil) of 97%.
In the case of `C=CCNC(=O)c1c([Si](C)(C)C)sc2ccccc12` [Example 13, N-2-Propenyl-2-(trimethylsilyl)benzo[b]thiophene-3-carboxamide], the inhibition at 0.1 ppm [1] is reported as 100%, the inhibition at 1 ppm [1] is reported as 100% and the inhibition at 10 ppm [1] is reported as 100%. For the same molecule, the pest or weed control at 0.1 mg/pot (Ggt; soil) was 84% and the pest or weed control at 0.5 mg/pot (Ggt; soil) was 94%.
In the case of `CCN(CC)C(=O)c1c([Si](C)(C)C)sc2ccccc12` [Example 14, N,N-Diethyl-2-(trimethylsilyl)benzo[b]thiophene-3-carboxamide], the inhibition at 0.1 ppm [1] is reported as 42%, the inhibition at 1 ppm [1] is reported as 92% and the inhibition at 10 ppm [1] is reported as 100%. The pest or weed control at 0.1 mg/pot (Ggt; soil) was 76% and the pest or weed control at 0.5 mg/pot (Ggt; soil) was 94%.
In the case of `CCNC(=O)C1=C([Si](C)(C)C)S(=O)(=O)c2ccccc21` [Example 15, N-Ethyl-2-(trimethylsilyl)benzo[b]thiophene-3-carboxamide 1,1-dioxide], the inhibition at 0.1 ppm [1] is reported as 10%, the inhibition at 1 ppm [1] is reported as 30% and the inhibition at 10 ppm [1] is reported as 83%.
`CCN(SC)C(=O)c1c([Si](C)(C)C)sc2ccccc12` [Example 16, N-Ethyl-N-(methylthio)-2-(trimethylsilyl)benzo[b]-thiophene-3-carboxamide] was tested, and the inhibition at 0.1 ppm [1] was 100%, the inhibition at 1 ppm [1] was 100% and the inhibition at 10 ppm [1] was 100%. The pest or weed control at 0.1 mg/pot (Ggt; soil) was 87% and the pest or weed control at 0.5 mg/pot (Ggt; soil) was 93%.
`CC(C)N(O)C(=O)c1c([Si](C)(C)C)sc2ccccc12` [Example 17, N-Hydroxy-N-(1-methylethyl)-2-(trimethylsilyl)benzo[b]-thiophene-3-carboxamide] gave an inhibition at 0.1 ppm [1] of 96%, an inhibition at 1 ppm [1] of 100% and an inhibition at 10 ppm [1] of 100%. For the same molecule, the pest or weed control at 0.1 mg/pot (Ggt; soil) was 42% and the pest or weed control at 0.5 mg/pot (Ggt; soil) was 46%.
Work on `CC(C)(C)Nc1ccc2ccccc2c1C(=O)NCCBr` [Example 18, N-(2-bromoethyl) 2-[(1,1-dimethylethyl)amino]-1-naphthamide] yielded an inhibition at 0.1 ppm [1] of 10%, an inhibition at 1 ppm [1] of 88% and an inhibition at 10 ppm [1] of 98%. For the same molecule, the pest or weed control at 0.02 mg/pot (Ggt; soil) was 0%, the pest or weed control at 0.1 mg/pot (Ggt; soil) was 0% and the pest or weed control at 0.5 mg/pot (Ggt; soil) was 14%.
`CCC(C)(C)Nc1ccc2ccccc2c1C(=O)NCCBr` [Example 19, N-(2-bromoethyl) 2-[(1,1-dimethylpropyl)amino]-1-naphthamide] gave an inhibition at 0.1 ppm [1] of 68%, an inhibition at 1 ppm [1] of 93% and an inhibition at 10 ppm [1] of 98%. The pest or weed control at 0.02 mg/pot (Ggt; soil) was 0%, the pest or weed control at 0.1 mg/pot (Ggt; soil) was 0% and the pest or weed control at 0.5 mg/pot (Ggt; soil) was 22%.
Work on `CCNC(=O)c1c(NC(C)(C)C)ccc2ccccc12` [Example 20, N-ethyl 2-[(1,1-dimethylethyl)amino]-1-naphthamide] yielded an inhibition at 0.1 ppm [1, 2] of 80%, an inhibition at 1 ppm [1, 3] of 98% and an inhibition at 10 ppm [1, 4] of 100%. The IC50 ([1]; interpolated from percent inhibition at 1, 0.1, 0.01, 0.001 and 0.0001 ppm) was 0.0716 µg/mL (≈ 0.265 µM), the pest or weed control at 0.02 mg/pot (Ggt; rate 0.02mg/pot, wheat, soil infested with Ggt, after four weeks) was 5% and the pest or weed control at 0.1 mg/pot (Ggt; [5]) was 24%. The pest or weed control at 0.5 mg/pot (Ggt; rate 0.5 (head prints ppm, head line ends mg/pot), wheat, soil infested with Ggt, after four weeks, N = no control) was 61%.
`CCNC(=O)c1c(OC2(C)CCCCC2)ccc2ccccc12` [Example 38, N-ethyl 2-[(1-methyl-1-cyclohexyl)oxy]-1-naphthamide] showed an inhibition at 0.1 ppm [1, 2] of 0%, an inhibition at 1 ppm [1, 3] of 43% and an inhibition at 10 ppm [1, 4] of 30%.
With `CCNC(=O)c1c([Si](C)(C)C)ccc2ccoc12` [Example 44, N-ethyl 6-trimethylsilyl benzofuran-7-carboxamide] the inhibition at 0.1 ppm [1] was 98%, the inhibition at 1 ppm [1] was 98% and the inhibition at 10 ppm [1] was 100%.
